Results as given in ChEMBL document CHEMBL1201862, “PubChem BioAssay data set” (2004).
Where a name gives a salt, the structure may show the parent alone. Activity calls are given as the source filed them.

Assays:
[1] = bead-based luminescence quenchers, dual-tagged ARNT – biochemical, AlphaScreen, cherry-pick, artefact control for ARNT-TACC3 interaction inhibitor project, dose response (AID 651705); assay type: functional;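 further: AlphaScreen bead proximity signal that flags compounds interfering with the detection technology; potency reflects signal decrease which marks the compound as an assay artifact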
[2] = target: T1, Replicative DNA helicase DnaB (Mycobacterium tuberculosis, UniProt P9WMR3); assay: DnaB intein splicing inhibitors, dose response, biochemical, cell-free fluorescence (AID 449749); assay type: functional
T1 sequence (P9WMR3 whole entry): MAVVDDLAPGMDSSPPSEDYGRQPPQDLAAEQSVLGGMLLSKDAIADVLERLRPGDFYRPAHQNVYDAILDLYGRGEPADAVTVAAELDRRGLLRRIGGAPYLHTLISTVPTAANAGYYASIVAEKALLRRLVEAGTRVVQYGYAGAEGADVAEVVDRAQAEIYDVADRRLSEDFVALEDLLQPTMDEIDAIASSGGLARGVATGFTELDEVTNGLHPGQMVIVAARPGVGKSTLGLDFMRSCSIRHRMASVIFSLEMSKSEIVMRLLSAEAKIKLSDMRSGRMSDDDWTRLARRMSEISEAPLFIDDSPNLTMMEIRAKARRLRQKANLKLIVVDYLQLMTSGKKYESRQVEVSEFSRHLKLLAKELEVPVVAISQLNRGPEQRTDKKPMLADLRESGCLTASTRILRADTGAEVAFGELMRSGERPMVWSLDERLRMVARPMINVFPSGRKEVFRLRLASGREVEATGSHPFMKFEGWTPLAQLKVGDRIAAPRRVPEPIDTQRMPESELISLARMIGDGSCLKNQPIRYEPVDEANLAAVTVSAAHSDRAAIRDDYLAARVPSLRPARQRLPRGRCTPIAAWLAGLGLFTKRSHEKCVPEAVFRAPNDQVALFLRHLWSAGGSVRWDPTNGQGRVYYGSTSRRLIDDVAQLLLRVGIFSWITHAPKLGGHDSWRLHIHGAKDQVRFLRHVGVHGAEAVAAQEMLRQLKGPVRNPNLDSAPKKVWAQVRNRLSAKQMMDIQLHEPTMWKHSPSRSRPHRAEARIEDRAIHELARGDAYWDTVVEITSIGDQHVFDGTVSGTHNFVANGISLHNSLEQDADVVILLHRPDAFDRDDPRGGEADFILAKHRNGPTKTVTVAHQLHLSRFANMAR

Aminopeptidase N = target: T2, Aminopeptidase N (Plasmodium falciparum FcB1/Columbia, UniProt O96935); assay: malaria alanyl aminopeptidase activity blockers – biochemical, fluorogenic H-Leu-NHMec substrate, 1536-well (AID 1445); design: species or system Plasmodium falciparum 3D7, 3D7
T2 sequence (O96935 whole entry): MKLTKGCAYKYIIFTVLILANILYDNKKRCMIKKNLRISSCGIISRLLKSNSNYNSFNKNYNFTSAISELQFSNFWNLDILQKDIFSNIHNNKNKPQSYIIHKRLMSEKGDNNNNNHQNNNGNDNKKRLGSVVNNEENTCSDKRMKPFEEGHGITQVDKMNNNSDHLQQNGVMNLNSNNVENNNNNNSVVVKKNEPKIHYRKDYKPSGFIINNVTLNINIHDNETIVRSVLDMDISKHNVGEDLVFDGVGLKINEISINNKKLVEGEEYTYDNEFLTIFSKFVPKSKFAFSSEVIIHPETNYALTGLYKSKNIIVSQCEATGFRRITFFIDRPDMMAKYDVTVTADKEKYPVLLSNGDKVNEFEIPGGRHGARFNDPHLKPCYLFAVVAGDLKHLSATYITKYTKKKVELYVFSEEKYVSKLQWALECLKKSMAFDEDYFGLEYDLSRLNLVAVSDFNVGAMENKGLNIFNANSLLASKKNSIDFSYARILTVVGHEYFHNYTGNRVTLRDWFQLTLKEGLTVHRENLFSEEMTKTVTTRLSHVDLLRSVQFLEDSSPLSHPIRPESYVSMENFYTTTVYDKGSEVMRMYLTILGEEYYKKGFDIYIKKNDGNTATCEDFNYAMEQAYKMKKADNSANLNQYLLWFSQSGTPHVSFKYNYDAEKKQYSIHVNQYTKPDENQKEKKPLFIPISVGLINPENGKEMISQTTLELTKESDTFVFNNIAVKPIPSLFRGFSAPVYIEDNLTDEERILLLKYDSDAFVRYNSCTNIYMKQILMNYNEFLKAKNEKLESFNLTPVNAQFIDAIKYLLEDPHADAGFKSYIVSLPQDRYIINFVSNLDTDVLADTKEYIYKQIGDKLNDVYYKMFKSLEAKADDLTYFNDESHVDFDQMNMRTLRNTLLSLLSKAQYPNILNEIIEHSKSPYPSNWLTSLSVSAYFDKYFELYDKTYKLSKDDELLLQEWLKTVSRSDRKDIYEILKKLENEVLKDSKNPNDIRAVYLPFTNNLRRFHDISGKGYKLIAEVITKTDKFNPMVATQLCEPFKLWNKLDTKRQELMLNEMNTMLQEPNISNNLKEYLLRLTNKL

Protein RecA = target: T3, Protein RecA (Mycobacterium tuberculosis, UniProt P9WHJ3); assay: Fluorescence Cell-Free Homogeneous Dose Retest to Identify Inhibitors of RecA-Intein Splicing Activity. [Related pubchem assays (depositor defined):AID2097, AID2223, AID489010, AID492950]; assay type: functional
T3 sequence (P9WHJ3 whole entry): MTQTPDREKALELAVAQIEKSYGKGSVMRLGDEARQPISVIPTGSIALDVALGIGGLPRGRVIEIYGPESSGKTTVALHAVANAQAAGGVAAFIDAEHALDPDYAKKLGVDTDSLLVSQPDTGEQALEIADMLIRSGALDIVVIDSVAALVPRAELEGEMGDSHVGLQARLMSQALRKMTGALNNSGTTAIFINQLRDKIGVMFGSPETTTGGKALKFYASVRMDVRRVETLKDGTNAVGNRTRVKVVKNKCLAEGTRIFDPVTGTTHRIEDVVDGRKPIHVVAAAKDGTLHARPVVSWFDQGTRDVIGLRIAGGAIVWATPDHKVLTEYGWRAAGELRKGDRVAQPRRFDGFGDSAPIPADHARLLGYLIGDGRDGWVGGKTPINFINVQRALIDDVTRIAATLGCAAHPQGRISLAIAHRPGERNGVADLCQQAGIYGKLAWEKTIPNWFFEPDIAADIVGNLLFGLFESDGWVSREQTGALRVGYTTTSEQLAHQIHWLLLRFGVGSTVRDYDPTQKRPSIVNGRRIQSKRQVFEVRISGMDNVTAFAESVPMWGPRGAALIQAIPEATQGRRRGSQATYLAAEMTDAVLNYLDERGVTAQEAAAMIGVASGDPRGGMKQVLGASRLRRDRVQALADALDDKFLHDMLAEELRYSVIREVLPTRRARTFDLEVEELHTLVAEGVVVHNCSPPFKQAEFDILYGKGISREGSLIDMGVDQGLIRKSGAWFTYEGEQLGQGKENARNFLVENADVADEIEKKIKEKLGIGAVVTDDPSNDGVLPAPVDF

[3] = target: T4, Apoptotic protease-activating factor 1 (Homo sapiens, UniProt O14727); assay type: functional
T4 sequence (O14727 whole entry): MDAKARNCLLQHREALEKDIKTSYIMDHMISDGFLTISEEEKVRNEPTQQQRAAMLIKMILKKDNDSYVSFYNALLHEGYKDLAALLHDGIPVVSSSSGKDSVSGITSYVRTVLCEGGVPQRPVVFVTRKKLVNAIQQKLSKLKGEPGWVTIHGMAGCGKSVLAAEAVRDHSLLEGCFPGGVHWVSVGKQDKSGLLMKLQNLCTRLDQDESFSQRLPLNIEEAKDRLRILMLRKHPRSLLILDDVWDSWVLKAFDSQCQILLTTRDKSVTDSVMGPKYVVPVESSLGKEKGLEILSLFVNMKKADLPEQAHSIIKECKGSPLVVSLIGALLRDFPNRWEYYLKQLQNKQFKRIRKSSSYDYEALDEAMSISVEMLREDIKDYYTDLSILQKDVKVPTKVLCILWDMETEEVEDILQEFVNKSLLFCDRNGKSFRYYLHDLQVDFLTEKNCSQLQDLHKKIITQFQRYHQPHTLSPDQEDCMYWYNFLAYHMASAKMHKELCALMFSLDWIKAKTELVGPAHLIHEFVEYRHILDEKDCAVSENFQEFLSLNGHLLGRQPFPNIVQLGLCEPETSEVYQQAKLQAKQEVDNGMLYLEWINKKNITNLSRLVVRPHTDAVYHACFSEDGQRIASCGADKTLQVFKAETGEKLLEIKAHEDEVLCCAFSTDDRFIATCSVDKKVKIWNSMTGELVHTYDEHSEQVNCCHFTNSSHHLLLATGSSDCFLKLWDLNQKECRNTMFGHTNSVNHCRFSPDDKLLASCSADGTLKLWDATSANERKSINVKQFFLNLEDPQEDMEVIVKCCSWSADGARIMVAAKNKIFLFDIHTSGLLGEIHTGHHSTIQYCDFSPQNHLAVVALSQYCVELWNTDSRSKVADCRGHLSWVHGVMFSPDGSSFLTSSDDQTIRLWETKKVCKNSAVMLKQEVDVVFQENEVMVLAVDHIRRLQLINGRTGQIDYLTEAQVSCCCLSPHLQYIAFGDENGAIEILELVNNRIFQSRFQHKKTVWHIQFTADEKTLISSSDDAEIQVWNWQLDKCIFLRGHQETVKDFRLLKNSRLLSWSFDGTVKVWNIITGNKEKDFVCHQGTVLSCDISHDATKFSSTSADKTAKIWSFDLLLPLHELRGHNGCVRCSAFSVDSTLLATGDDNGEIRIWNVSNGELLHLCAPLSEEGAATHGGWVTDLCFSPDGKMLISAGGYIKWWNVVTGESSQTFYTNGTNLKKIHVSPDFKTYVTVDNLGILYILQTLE

[4] = viability of uninfected HEp-2 cells – cell-based, HTS, cytotoxicity control for RSV inhibitor project, dose response (AID 2410); assay type: functional; conditions: human respiratory syncytial virus
Protein Wnt-3a = Protein Wnt-3a (Mus musculus, UniProt P27467); assay: antagonism of Wnt3a pathway luciferase reporter – Wnt-LIGHT cells, luminescence, selectivity assay for Gli-SUFU antagonist project, dose response (AID 651570); assay type: functional; conditions: read-out: IC50_Mean;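 further: Wnt-LIGHT reporter cells stimulated with conditioned medium from Wnt3a-producing cells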
Protein Wnt-3a, sequence (P27467 whole entry): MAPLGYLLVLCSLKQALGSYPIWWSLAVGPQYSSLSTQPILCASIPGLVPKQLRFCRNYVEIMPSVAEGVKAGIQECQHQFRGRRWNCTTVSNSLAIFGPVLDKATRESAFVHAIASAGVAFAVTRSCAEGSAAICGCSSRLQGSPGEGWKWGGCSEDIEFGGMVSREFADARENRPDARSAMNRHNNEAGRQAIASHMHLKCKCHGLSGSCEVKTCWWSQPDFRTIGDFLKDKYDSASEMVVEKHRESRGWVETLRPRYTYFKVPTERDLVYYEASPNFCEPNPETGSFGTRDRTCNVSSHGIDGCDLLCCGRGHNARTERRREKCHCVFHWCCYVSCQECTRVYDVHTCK

[5] = reduction of Shn3 3'UTR-driven luciferase in osteoblasts – cell-based, Clone20 osteoblasts, firefly luciferase, cherry-picked, dose response (AID 624132); assay type: functional;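 further: firefly luciferase luminescence from reporter carrying the Shn3 3'UTR in osteoblasts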
[6] = loss of viability in HepG2 cells – cell-based, CellTiter-Glo, cherry-picked, cytotoxicity control for Shn3 inhibitor project, dose response (AID 624134); assay type: functional
[7] = Trypanosoma cruzi growth suppression in host cells – NIH3T3 host cells, beta-gal luminescence, confirmation (AID 2044); assay type: functional, cell-based;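 further: intracellular parasites grown in NIH/3T3 mouse fibroblasts as host cells; luminescent beta-galactosidase reporter signal from transgenic T. cruzi replicating inside host cells; inhibitors lower the luminescence signal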
[8] = target: T5, Hepatocyte nuclear factor 4-alpha (Homo sapiens, UniProt P41235); assay type: functional, cell-based;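 further: biochemical luminescence-based dose-response counterscreen measuring inhibition of HNF4 dimerization, run alongside a screen for blockers of ABHD5–perilipin-5 interaction; split luciferase complementation of HNF4 fusion proteins in cell lysate measuring dimerization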
T5 sequence (P41235 whole entry): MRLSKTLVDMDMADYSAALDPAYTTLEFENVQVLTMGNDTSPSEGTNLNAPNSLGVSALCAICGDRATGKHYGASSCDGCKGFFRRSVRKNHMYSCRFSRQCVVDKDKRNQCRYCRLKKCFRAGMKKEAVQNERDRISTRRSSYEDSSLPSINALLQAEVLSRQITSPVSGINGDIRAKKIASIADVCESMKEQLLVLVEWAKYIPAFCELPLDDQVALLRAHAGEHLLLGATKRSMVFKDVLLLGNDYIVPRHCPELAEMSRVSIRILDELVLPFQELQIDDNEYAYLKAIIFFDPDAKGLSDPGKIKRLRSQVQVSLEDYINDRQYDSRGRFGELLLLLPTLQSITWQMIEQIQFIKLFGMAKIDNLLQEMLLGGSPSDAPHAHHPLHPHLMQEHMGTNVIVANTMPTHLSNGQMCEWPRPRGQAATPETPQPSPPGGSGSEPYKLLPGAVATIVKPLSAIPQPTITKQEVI

[9] = NIH3T3 cell viability loss – ATP luminescence, mouse fibroblasts, counter-screen, dose response (AID 2010); assay type: functional, cell-based;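 further: cells exposed to compound for about 90 hours before reading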
Streptococcus = assay: GAS UMAA2166 growth inhibition – luminescence, BacTiterGlo, counter-screen for streptokinase expression inhibitor project, dose response (AID 1915); assay type: functional, organism-based;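 further: potency for reduction of bacterial viability or growth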
[10] = test system: Streptococcus sp. 'group A'; assay: Streptococcus pyogenes SK(-)GAS viability under kanamycin – luminescence, BacTiterGlo, confirmation, counter-screen for streptokinase expression inhibitor project, dose response (AID 1900); assay type: functional, organism-based

## O=C1NC(=O)C(=NNc2cc([N+](=O)[O-])ccc2O)C(=O)N1
[1]
  AC50: 111 µM (active)
[2]
  AC50: 4.84 µM (active)
Aminopeptidase N
  IC50: 11.4 µM (active)
Protein RecA
  EC50: 3.79 µM (active)

## O=C1NNC(c2ccccc2)=N/C1=C\c1ccc(Cl)cc1
[3]
  IC50: 22.9 µM (active)

## O=S(=O)(c1ccc(Br)cc1)N1CCN(c2ccc3nnc(-c4ccccc4)n3n2)CC1
[4]
  CC50: 32.9 µM (active)
[3]
  IC50: 8.5 µM (active)

## CCOc1ccc(NC(=S)NNc2ccnc3cc(Cl)ccc23)cc1
Protein Wnt-3a
  IC50: 11.4 µM (active)

## C[C@H](NC(=O)c1ccco1)C(=O)Nc1nc(-c2ccccn2)cs1
[1]
  AC50: 90.1 µM (active)

## COc1ccc(-c2noc(CCCCC(=O)N3CCN(c4cc(C)ccc4C)CC3)n2)cc1
Protein Wnt-3a
  IC50: 2.84 µM (active)
[5]
  AC50: 1.75 µM (active)
[6]
  AC50: 2.2 µM (active)

## O=C(C[C@@H]1C/C=C\C[C@@H](NC(=O)OCC2c3ccccc3-c3ccccc32)C(=O)OC[C@@H](Cc2ccccc2)NC1=O)NCCO
Protein Wnt-3a
  IC50: 13.5 µM (active)

## C=C[C@]1(C)C[C@@H](OC(=O)CSCCN(CC)CC)[C@]2(C)[C@H](C)CC[C@]3(CCC(=O)[C@H]32)[C@@H](C)[C@@H]1O [TIAMULIN FUMARATE]
[7]
  EC50: 1.75 µM (active)
[8]
  IC50: 39.8 µM (inactive)
[9]
  EC50: > 60 µM (not active)
Streptococcus
  EC50: < 0.06 µM (active)
[10]
  EC50: < 0.06 µM (active)
